Experimental data reported in PubChem BioAssay AID330 (DTP/NCI, 2004).
“And” between values parts separate entries of the source, which are not always exact repeats. Identical values can stand only once. Toxic doses and inconclusive results are not listed. How the source made its calls: active means survival T/C of 150% or more; inactive means T/C below 125% in these data.

System: P388 leukemia ip, CD2F1 mice, survival T/C
Test: NCI In Vivo Anticancer Drug Screen. Data for tumor model P388 Leukemia (intraperitoneal) in CD2F1 (CDF1) mice
Conditions: endpoint: median survival time, higher = longer survival
In short: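 Mice carrying the transplanted tumor received test compound or vehicle. Survival was recorded in each group, and the value is the treated-group measurement divided by that of the vehicle-treated control group.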

[1] = dose: 50.0 mg/kg/injection, schedule: Q01DX005 (ip), vehicle: saline with Tween-80
[2] = dose: 100.0 mg/kg/injection, schedule: Q01DX005 (ip), vehicle: saline with Tween-80
[3] = dose: 200.0 mg/kg/injection, schedule: Q01DX005 (ip), vehicle: saline with Tween-80
[4] = dose: 50.0 mg/kg/injection, schedule: Q01DX009 (ip), vehicle: Klucel (hydroxypropylcellulose) (HPC)
[5] = dose: 100.0 mg/kg/injection, schedule: Q01DX009 (ip), vehicle: Klucel (hydroxypropylcellulose) (HPC)
[6] = dose: 200.0 mg/kg/injection, schedule: Q01DX009 (ip), vehicle: Klucel (hydroxypropylcellulose) (HPC)

Measured: T/C

CCCCOC(=O)Nc1ccc(C)c(NC(=O)OCCCC)c1
inactive: dose: 50.0 mg/kg/injection, schedule: Q01DX009 (ip), vehicle: saline 100 % of control | dose: 100.0 mg/kg/injection, schedule: Q01DX009 (ip), vehicle: saline 102 % of control | dose: 200.0 mg/kg/injection, schedule: Q01DX009 (ip), vehicle: saline 100 % of control

CC/C(=N\OC(=O)Nc1ccccc1)c1ccc(OC(=O)Nc2ccccc2)cc1
inactive: [1] 99 % of control | [2] 95 % of control | [3] 104 % of control

COc1cccc(C2SCC(=O)N2c2nncs2)c1[N+](=O)[O-] (centres undefined)
inactive: dose: 60.0 mg/kg/injection, schedule: Q01DX005 (ip), vehicle: saline with Tween-80 110 % of control | dose: 120.0 mg/kg/injection, schedule: Q01DX005 (ip), vehicle: saline with Tween-80 100 % of control | dose: 240.0 mg/kg/injection, schedule: Q01DX005 (ip), vehicle: saline with Tween-80 91 % of control

CCCCCCCCCCCCCCCCCC[N+](C)(C)C (tested in a mixture with another compound)
inactive: dose: 1.5 mg/kg/injection, schedule: Q01DX009 (ip), vehicle: saline with Tween-80 90 % of control | dose: 3.0 mg/kg/injection, schedule: Q01DX009 (ip), vehicle: saline with Tween-80 113 % of control | dose: 6.25 mg/kg/injection, schedule: Q01DX009 (ip), vehicle: saline 109 % of control | dose: 12.5 mg/kg/injection, schedule: Q01DX009 (ip), vehicle: saline 113 % of control

O=[N+]([O-])c1ccc(-c2csc(NCC3CCCO3)n2)cc1 (centres undefined)
inactive: [4] 101 % of control | [5] 100 % of control | [6] 100 % of control

C=C(C)C1CC2=C(C(=O)OC)C=C(O2)C(C(=C)C)C2OC(=O)/C(=C\C1O)C2OC (centres undefined)
inactive: dose: 11.88 mg/kg/injection, schedule: Q01DX005 (ip), vehicle: saline + alcohol 99 % of control | dose: 23.75 mg/kg/injection, schedule: Q01DX005 (ip), vehicle: saline + alcohol 96 % of control | dose: 47.5 mg/kg/injection, schedule: Q01DX005 (ip), vehicle: saline + alcohol 101 % of control | dose: 95.0 mg/kg/injection, schedule: Q01DX005 (ip), vehicle: saline + alcohol 108 % of control | dose: 190.0 mg/kg/injection, schedule: Q01DX005 (ip), vehicle: saline + alcohol 99 % of control

O=c1[nH]nc(Sc2ccccc2)c2nncn12
inactive: [1] 100 % of control | [2] 92 % of control

CNC1Cc2c[nH]c3cccc(c23)C12C=C(C)C(=O)O2 (centres undefined)
inactive: dose: 75.0 mg/kg/injection, schedule: Q01DX009 (ip), vehicle: saline with Tween-80 120 % of control and 115 % of control | dose: 150.0 mg/kg/injection, schedule: Q01DX009 (ip), vehicle: saline with Tween-80 120 % of control and 115 % of control | dose: 300.0 mg/kg/injection, schedule: Q01DX009 (ip), vehicle: saline with Tween-80 120 % of control

O=C1NNC(c2ccccc2)=Nc2[nH]ncc21
inactive: dose: 100.0 mg/kg/injection, schedule: Q04DX002 (ip), vehicle: saline with Tween-80 96 % of control | dose: 200.0 mg/kg/injection, schedule: Q04DX002 (ip), vehicle: saline with Tween-80 93 % of control | dose: 400.0 mg/kg/injection, schedule: Q04DX002 (ip), vehicle: saline with Tween-80 93 % of control

COc1ccc(OC)c(NC=O)c1
inactive: dose: 12.5 mg/kg/injection, schedule: Q01DX009 (ip), vehicle: saline with Tween-80 98 % of control and 86 % of control | dose: 25.0 mg/kg/injection, schedule: Q01DX009 (ip), vehicle: saline with Tween-80 98 % of control and 93 % of control and 97 % of control | dose: 50.0 mg/kg/injection, schedule: Q01DX009 (ip), vehicle: saline with Tween-80 104 % of control and 97 % of control | dose: 100.0 mg/kg/injection, schedule: Q01DX009 (ip), vehicle: saline with Tween-80 99 % of control and 100 % of control and 97 % of control

CCN1C[C@@]2(C)CCC(OC)C34[C@H]2[C@@H](OC(C)=O)C2(OCO[C@]25C[C@@H](OC)C2C[C@@]3(O)[C@H]5C2O)[C@@H]14 (some centres undefined)
inactive: dose: 4.0 mg/kg/injection, schedule: Q01DX005 (ip), vehicle: saline with Tween-80 100 % of control | dose: 8.0 mg/kg/injection, schedule: Q01DX005 (ip), vehicle: saline with Tween-80 99 % of control | dose: 16.0 mg/kg/injection, schedule: Q01DX005 (ip), vehicle: saline with Tween-80 97 % of control | dose: 32.0 mg/kg/injection, schedule: Q01DX005 (ip), vehicle: saline with Tween-80 107 % of control | dose: 64.0 mg/kg/injection, schedule: Q01DX005 (ip), vehicle: saline with Tween-80 108 % of control

O=C1c2ccccc2CCC12OC2c1ccc([N+](=O)[O-])cc1 (centres undefined)
inactive: dose: 25.0 mg/kg/injection, schedule: Q01DX005 (ip), vehicle: saline with Tween-80 100 % of control | [1] 106 % of control | [2] 110 % of control | [3] 106 % of control

N/C(=N\OC(=O)NC(Cl)=C(Cl)Cl)c1cc(C(F)(F)F)cc(C(F)(F)F)c1
inactive: [1] 102 % of control | [2] 102 % of control | [3] 100 % of control

C/C=C(\C)c1cc(=O)c2c(C)cc3c(c2o1)C(=O)c1c(O)c(C2CC(C)(N(C)C)C(OC(C)=O)C(C)O2)cc(C2CC(N(C)C)C(O)C(C)O2)c1C3=O (centres undefined)
inactive: dose: 1.25 mg/kg/injection, schedule: Q01DX009 (ip), vehicle: saline 100 % of control | dose: 2.5 mg/kg/injection, schedule: Q01DX009 (ip), vehicle: saline 117 % of control | dose: 5.0 mg/kg/injection, schedule: Q01DX009 (ip), vehicle: saline 89 % of control

CCCCCCCCOc1cc2cc(O)oc3cc(=O)cc(o1)c23
inactive: dose: 60.0 mg/kg/injection, schedule: Q01DX005 (ip), vehicle: saline 108 % of control | dose: 120.0 mg/kg/injection, schedule: Q01DX005 (ip), vehicle: saline 122 % of control

BrCc1ccccc1C[P+](c1ccccc1)(c1ccccc1)c1ccccc1
inactive: dose: 1.5 mg/kg/injection, schedule: Q01DX009 (ip), vehicle: saline 113 % of control | dose: 3.13 mg/kg/injection, schedule: Q01DX009 (ip), vehicle: saline 104 % of control

CCC[CH2][Sn]([CH2]CCC)([O]S(=O)c1ccccc1)[O]S(=O)c1ccccc1 (centres undefined)
inactive: dose: 3.12 mg/kg/injection, schedule: Q01DX001 (ip), vehicle: saline with Tween-80 103 % of control | dose: 6.25 mg/kg/injection, schedule: Q01DX001 (ip), vehicle: saline with Tween-80 119 % of control

CC1=N[N+](C)(C)C([O-])=C1C
inactive: [1] 103 % of control | [2] 97 % of control | [3] 100 % of control

CCCCCOC(CN(C)C)C(Cl)(Cl)Cl (centres undefined)
inactive: [4] 100 % of control | [5] 100 % of control | [6] 101 % of control

CCOC(=O)c1cccc2c(=O)c3c([nH]c12)C(=O)c1c([nH]c2c(C(=O)OCC)cccc2c1=O)C3=O
inactive: [4] 98 % of control | [5] 90 % of control | [6] 90 % of control

CC1CN1C1=C(Cl)C(=O)C(N2CC2C)=C(Cl)C1=O (centres undefined)
inactive: dose: 3.12 mg/kg/injection, schedule: Q01DX009 (ip), vehicle: Klucel (hydroxypropylcellulose) (HPC) 115 % of control
